Assay results as given in patent US20250082781A1, “METHODS OF LOWERING BLOOD GLUCOSE AND TREATING TYPE 2 DIABETES BY ACTIVATION OF PDE4D3” (Salk Institute for Biological Studies, priority 2021, published 2025).

Experiments:
blood glucose levels = assay: Blood glucose levels in DIO mice; type: in vivo, mouse; conditions: for blood glucose levels: 0.5 mg/kg FGF1 s.c.
Protocol: Mice were kept in 12 h light/dark cycle in a temperature-controlled environment. Mice had free access to food and water unless noted otherwise. C57/B6 mice background was used unless noted otherwise. C57BL/6J and ob/ob (000632-B6. Cg-Lepob/J) male mice were obtained from Jackson Laboratory. PDE4D knock-out mice (034588-UCD) were obtained from MMRRC. For diet-induced obesity (DIO) studies, mice were fed a high fat diet (HFD) (60% fat, F3282; Bio-Serv) for minimum of 12 weeks to induce insulin resistance when diet-induced obese model is used. Insulin levels and blood glucose levels were monitored to confirm insulin resistance. To generate adipose-specific FGFR1 deletion, adiponectin-cre mice (B6; FVB-Tg (Adipoq-cre)1Evdr/J; Stock: 010803) were crossed to Fgfr1 flox/flox (B6.129S4-Fgfr1tm5.1Sor/J; Stock: 00767) mice. For AAV mediated expression of target proteins in adipose tissue, 5×10E+11 genomic copies of AAV were injected via tail vein or retro-orbital route.
Recombinant FGF1 (rFGF1) was dissolved in phosphate-buffered saline (PBS) at a concentration of 0.2 mg/ml and was injected subcutaneously at a 0.5 mg kg^−1 dose. Blood glucose was monitored at indicated time points after injection. For initial measurements (2-4 h) food was removed after injection to exclude any indirect effects stemming from anorexigenic effects of FGF1. PDE4 inhibitor roflumilast stock in DMSO was diluted at 1 mg/ml in 30% captisol, pH 10 and delivered to mice thorough oral gavage at 5 mg kg^−1 dose. PDE3 inhibitor cilostamide stock in DMSO was diluted at 2 mg/ml in 30% captisol and delivered through intraperitoneal injection at 10 mg kg^−1 dose.

[1] = system: mouse SVF-derived adipocytes; assay: In vitro lipolysis assay (FFA release), mouse SVF-derived adipocytes; type: cell-based
Protocol: Isolation of adipose stromal fraction (SVF) was performed as published previously with slight modifications (Bapat et al., 2015). Inguinal adipose (iWAT) tissues were used for isolation of SVF due their ability to differentiate to mature adipocytes. Briefly, adipose tissues were dissected, washed in cold PBS and cut into small pieces in digestion buffer (100 mM HEPES, 120 mM NaCl, 50 mM KCl, 1 mM CaCl2), 1.5% fatty acids free BSA, 1 mg/ml collagenase I). Samples were dissociated in 37° C. water bath with shaking for 30-60 min with occasional monitoring to prevent over digestion. Tissue debris were filtered by 100 μm cell strainer and SVF was collected by centrifugation at 500 g for 5 minutes. Cell pellet was washed once by PBS and filtered with 40 μm cell strainer. Red blood cells were lysed with Red blood cell lysis buffer (BioLegend) according to manufacturer's instructions. The remaining cells were re-suspended and cultured in DMEM/F12 with 20% FBS (GemCell, 100-500) at 37° C., 5% CO2.
Differentiation of pre-adipocytes were based on previously published methods (Bunnell et al., 2008). Briefly, 3T3-L1 pre-adipocytes were grown to full confluence in DMEM, 10% FBS (GemCell, 100-500), 10 mM HEPES and antibiotic-antimycotic (full growth media). 2 days later, differentiation was induced by replacing the media with 1 μM dexamethasone, 1 μM rosiglitazone, 500 μM IBMX and 5 μg/ml insulin in full growth media 2 days later after reaching full confluence. Two days later media was replaced by differentiation induction media with 1 μM rosiglitazone and 5 μg/ml insulin for 4 days with media change after 2 days. Cells were kept in maintenance medium (full growth media with 5 μg/ml insulin) for 4 more days for full differentiation. […]
For in vitro lipolysis assay, cells were washed with PBS and media were changed to full growth media 1 day before experiment. […] FFAs were measured in the media using a commercial kit (Wako-NEFAHR2) and normalized to protein concentration. […] FFAs were measured and normalized by the explant weights.

PDE4D = assay: Western blot of PDE4D phosphorylation in gWAT after injection; type: in vivo, mouse; conditions: 30 minutes after FGF1 injection 0.5 mg/kg
Protocol: Tissues were lysed in cold lysis buffer (50 mM Tris, pH 7.5, 150 mM NaCl, 1% NP40, 0.5% NaDoc, 0.1% SDS, 5% glycerol, 1 mM EDTA, protease and phosphatase inhibitors (complete and PhosSTOP (Roche)) by homogenization by bead-beater for 30 s. Samples were cleared for 10 min at 18,000 g at 4° C. and the middle clear phase was transferred to new tubes. A second 30 min centrifugation was performed and the middle clear phase was transferred to new tubes. Five ul protein extract was used for BCA assay to determine protein concentration. Samples were boiled in Laemmli buffer. SDS-PAGE and blotting were performed using gradient gels and Trans-Blot Turbo Transfer System (Bio-Rad). Antibodies used were PDE4D (12918-1-AP, Proteintech), pHSL-660 (4126S, Cell signaling), HSL (4107S, Cell Signaling), tubulin (CP06, Millipore Sigma), and GFP (A01388, GenScript). PDE4D3-pS44 phospho-specific antibody was generated using PDE4D3-S44 FRRHpSWISFDVDNGTSAGR peptide (SEQ ID NO: 20) (Mackenzie et al., 2002) by Pocono Rabbit Farm, using 70-day rabbit antibody production protocol and purified via affinity purification. Primary antibodies were incubated for 2 h at room temperature (RT) or overnight (ON) at 4° C. Blots were developed using SuperSignal West Pico PLUS Chemiluminescent Substrate (ThermoFisher Scientific) and imaged with BioRad GelDoc system.

## FGF1: Recombinant fibroblast growth factor 1 protein, dissolved in PBS, injected subcutaneously
Blood glucose levels; DIO adR1KO mice
  blood glucose levels: failed to affect adR1KO mice
Blood glucose levels; DIO mice, FGF1 0.5 mg/kg, cilostamide 10 mg/kg
  ability of FGF1 to modulate glucose levels under inhibition of PDE3: failed to affect the ability of FGF1 to modulate glucose levels
Blood glucose levels; DIO wild type mice (adR1WT)
  blood glucose levels: rapidly decreased blood glucose levels
Blood glucose levels; HFD-fed PDE4D KO mice, FGF1 0.5 mg/kg
  blood glucose: failed to lower blood glucose
Blood glucose levels; PDE4D KO DIO mice 4 weeks after adAAV, FGF1 0.5 mg/kg
  FGF1 blood glucose lowering with adAAV-driven expression of PDE4D3 in adipose tissue: restored
Blood glucose levels; ad lib fed DIO mice, FGF1 0.5 mg/kg, roflumilast 5 mg/kg
  ability of FGF1 to reduce blood glucose levels with roflumilast pretreatment: lost
[1]; FGF1 100 ng/ml with roflumilast 2 μM
  anti-lipolytic activity of FGF1 with selective inhibitors of PDE4: blocked by selective inhibitors of PDE4
[1]; FGF1 100 ng/ml, 10 min before ISO 1 nM
  basal and isoproterenol-induced lipolysis: acutely suppressed basal and isoproterenol-induced lipolysis
[1]; FGF1 100 ng/ml, ISO 1 nM
  isoproterenol-induced lipolysis in adipocytes derived from PDE4D KO SVF: insensitive to FGF1 treatment
PDE4D
  PDE4D phosphorylation in gWAT: increase in PDE4D phosphorylation
